Assay results: patent US20200283381A1, “SOLID STATE FORMS OF ELAFIBRANOR” (TEVA PHARMACEUTICALS INTERNATIONAL GMBH, priority 2017, published 2020)

What was measured:
[1] = Thermodynamic (polymorphic) stability: conversion to other solid state forms, measured by XRPD; format: physicochemical; conditions: after exposure to conditions of up to 25° C./100% RH for at least 1 month, as measured by XRPD; stable = less than 20% conversion
Protocol: The crystalline Elafibranor as described above in (a)-(f) may be anhydrous. The crystalline Elafibranor may be substantially free of other solid state forms of Elafibranor. […] In some embodiments, the conversion is 1%-20%, 1%-10% or 1%-5%.
Melting peak of crystalline form I of Elafibranor is in the range of about 154° C. and about 164° C., for example about 158° C. and about 160° C., preferably at about 159° C. as measured by DSC. […] Thermodynamic stability in relation to crystalline Elafibranor form I refers to less than 20%, less than 10%, less than 5%, less than 2%, less than 1%, or less than 0.5% conversion of crystalline Elafibranor form I to any other solid state form of Elafibranor after exposure of form I to conditions of up to 25° C./100% RH for at least 1 month, as measured by XRPD. In some embodiments, the conversion is 1%-20%, 1%-10% or 1%-5%.
Thermodynamic stability in relation to crystalline Elafibranor form II refers to less than 20%, 10%, 5%, 2%, 1%, or 0.5% conversion of crystalline Elafibranor form II to any other solid state form of Elafibranor after exposure of form II to conditions of up to 25° C./100% RH for at least 1 month, as measured by XRPD. In some embodiments, the conversion is 1%-20%, 1%-10% or 1%-5%.
Sample after being powdered in a mortar and pestle is applied directly on a silicon plate holder. […]

[2] = Hygroscopicity (water absorption, European Pharmacopoeia 7.0, chapter 01/2008:51100); format: physicochemical; conditions: non-hygroscopic = less than 0.1% (w/w) of water absorption after 24 h exposure to 25° C./80% RH
Protocol: As used herein the term non-hygroscopic in relation to crystalline Elafibranor refers to less than 0.1% (w/w) of water absorption after 24 h exposure to 25° C./80% RH, determined according to European Pharmacopoeia 7.0, chapter 01/2008:51100. Water can be for example atmospheric water.

thermodynamic stability (conversion to any other solid state form of Elafibranor) [1]: thermodynamically stable
hygroscopicity [2]: non-hygroscopic
SMILES: CSc1ccc(C(=O)/C=C/c2cc(C)c(OC(C)(C)C(=O)O)c(C)c2)cc1 [form I, 2-(2,6-dimethyl-4-{3-[4-(methylsulfanyl)phenyl]-3-oxoprop-1-en-1-yl}phenoxy)-2-methylpropanoic acid]
